Measured values taken from patent US11124490B2, “Autotaxin inhibitors” (UNIVERSITY OF TENNESSEE RESEARCH FOUNDATION, priority 2016, dated 2021).
“And” between values parts separate entries of the source, which are not always exact repeats. Equal values may be shown once.

Experiments:
[1] = molecular target: T1, human recombinant ATX (Homo sapiens (Human), UniProt Q13822); assay: ATX inhibition, hydrolysis of nucleotide substrate pNP-TMP; assay type: biochemical; settings: 1 mM pNP-TMP, 4 nM ATX, compound 0 to 1 μM
Experimental: (§1) ATX Generation: Human recombinant ATX was expressed as published previously, using Sf9 Spodoptera frugiperda ovary cells (Invitrogen, Carlsbad, Calif.).^13 Suspension cells were grown to a 1 liter quantity at a concentration of 1×10^6 cells/ml in Sf-900 III serum-free medium (Invitrogen) supplemented with 50 U/ml penicillin and 50 μg/ml streptomycin at 27° C. with agitation. Cells were then infected with high-titer baculovirus generated via Bac-to-Bac Baculovirus Expression System (Invitrogen) using the pCMV5 mammalian expression vector containing the C-terminal FLAG-tagged human ATX sequence (a generous gift from Dr. Junken Aoko, ohoku University, Aoba-ku, Sendai, Japan) subcloned into the pFastBacl transfer vector. […] Resultant ATX was then concentrated via centrifugation in Amicon Ultra 30,000 molecular weight cut off filter units (Millipore, Billerica, Mass.) and subsequent buffer exchange into storage buffer comprised of 50 mM Tris, pH 7.4 with 20% (v/v) ethylene glycol. Protein was held at −80° C. for long-term storage.
(§2) ATX Inhibition: ATX activity was assessed via hydrolysis of the synthetic, lipid-like FRET-based substrate FS-3 (Echelon Biosciences, Salt Lake City, Utah) or via hydrolysis of the nucleotide substrate p-nitrophenyl thymidine 5′-monophosphate (pNP-TMP) as described previously.^2 Reaction wells were loaded in 60 μl volumes in triplicate wells of half-area, black-wall 96-well plates in assay buffer consisting of 50 mM Tris, 140 mM NaCl, 5 mM KCl, 1 mM CaCl2, 1 mM MgCl2, […] BSA, pH 8.0. […] Fluorescence was read every 2 minutes for 1 hour at excitation/emission wavelengths of 485/528 nm for FS-3 hydrolysis or 405 nm absorbance for pNP-TMP hydrolysis using a FlexStation 3 microplate reader (Molecular Devices, Sunnyvale, Calif.). Data (relative fluorescence or absorbance) were then recorded as a mean value of the triplicates for each sample versus time. […] In the case of mechanism determination, the linear fluorescence data from time 10 minutes to 30 minutes were then transformed using a carboxyfluorescein standard curve to determine product concentration and plotted separately. Linear trend lines were inserted using Microsoft Excel, the slope of which represent the rates of reaction for each substrate concentration. This reaction rate data for each inhibitor concentration were then plotted against substrate (FS-3) concentration and simultaneously fitted via non-linear regression in the Michaelis-Menten equations for competitive, non-competitive, uncompetitive, and mixed-mode inhibition using GraphPad Prism version 5.0a. Mechanism of inhibition was determined by which curve fit had the best global fit (R^2 value).

[2] = molecular target: T1, human recombinant ATX; assay: ATX inhibition, hydrolysis of FRET substrate FS-3; assay type: biochemical; settings: for IC50: 1 μM FS-3, 4 nM human recombinant ATX, 1 hour time point, read-out: IC50 (nM ± SD) vs FS-3
Experimental: as §1, §2

[3] = tested on: A2058 human melanoma cells; assay: In vitro invasion assay (boyden chamber, matrigel); assay type: cell-based; settings: recombinant ATX plus 1 μM 18:1 LPC, 20 h, read-out: IC50 (nM) in cell invasion assay
Experimental: The boyden chamber assay was used to assess the effect of three of the benzene sulfonamide analogues on cell invasion of A2058 human melanoma cells in vitro. The A2058 cells invade the matrigel layer in an LPA-dependent manner. Therefore, exogenous LPC and recombinant ATX was used as a source of LPA. Firstly, the compounds were screened at 10 μM concentration alongside BMP 22, a potent ATX inhibitor^31. […] Subsequently, dose response curves for compounds 3a, 3b and 14 were generated (FIG. 13B).
In vitro invasion assay—A2058 human melanoma cell line (gift from Dr. Timothy Clair, NCI, National Institutes of Health) was cultured in Dulbecco's modified Eagle's medium (DMEM) supplemented with 10% (V/V) FBS, 100 U/mL penicillin, 100 μg/mL streptomycin and 2 mM L-glutamine (Life Technologies). Cell invasion was performed using the 24-well BD Biocoat™ tumor invasion system (BD Biosciences, 8 μm-pore size). Briefly, the matrigel coating was rehydrated with PBS at 37° C. for 2 h. After removal of PBS, 5×10^4 A2058 cells in serum-free DMEM supplemented with 0.1% BSA were plated to each upper chamber. […] The fluorescent invaded cells were measured using the FLEXstation II plate reader (Molecular Devices) at excitation and emission wavelengths of 485 and 530 nm, respectively.

[4] = molecular target: LPA1 receptor (Homo sapiens (Human), UniProt Q92633); assay: LPA-mediated Ca2+ mobilization, LPA1 RH7777 cells; assay type: cell-based; settings: for IC50: IC50 of compound in presence of EC50 concentration of LPA 18:1, read-out: EC50 or IC50 (μM), LPA1 RH7777; for Emax (% LPA), LPA1 RH7777: normalized to LPA 18:1 Emax
Sequence of LPA1 receptor (Q92633 whole entry): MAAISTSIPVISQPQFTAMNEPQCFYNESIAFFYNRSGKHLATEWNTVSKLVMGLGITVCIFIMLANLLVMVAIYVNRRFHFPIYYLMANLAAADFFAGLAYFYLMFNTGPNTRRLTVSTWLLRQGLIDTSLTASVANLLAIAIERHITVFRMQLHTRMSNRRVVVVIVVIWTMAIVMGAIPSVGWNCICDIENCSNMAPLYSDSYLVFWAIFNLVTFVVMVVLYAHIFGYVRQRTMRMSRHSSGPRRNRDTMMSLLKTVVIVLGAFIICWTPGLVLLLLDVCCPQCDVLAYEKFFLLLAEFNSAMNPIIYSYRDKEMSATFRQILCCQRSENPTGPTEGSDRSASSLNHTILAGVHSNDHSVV
Experimental: Cell Culture: LPA1 and LPA3 RH7777 rat hepatoma cells were generated in-house as described previously^34 and maintained in DMEM supplemented with 10% FBS and 2 mM L-glutamine with 250 μg/ml G418. LPA2 MEF mouse embryonic fibroblast cells were also derived from LPA1 and LPA2 double knockout mouse embryos as described previously^35 and maintained in DMEM supplemented with 10% FBS, 2 mM L-glutamine, 100 U/ml penicillin and 100 μg/ml streptomycin. LPA4 CHO chinese hamster ovary cells were a generous gift from Dr. Takao Shimizu (Tokyo University, Tokyo, Japan) and were maintained in Ham's F12 medium supplemented with 10% FBS, 2 mM L-glutamine and 350 μg/ml G418. LPA5 B103 rate neuroblastoma cells were derived in house via lentiviral transduction of FLAG-tagged LPA5 and puromycin selection as published^36 and maintained in DMEM supplemented with 10% FBS and 0.4 μg/ml puromycin. All cells were maintained at 37° C. with 5% CO2 in a humidified atmosphere.
Calcium Mobilization: As published previously, LPAR activation leads to transient calcium mobilization. […] All cells were plated in triplicate in 96-well, black-wall plates at a density of 5×10^4 cells per well and allowed to adhere overnight. LPA1 and LPA3 RH7777 cells were plated in poly-L-lysine coated plates. LPA5 B103 cells were plated in Matrigel-coated plates. After adherence, cells were serum-deprived in Krebs buffer consisting of 10 mM HEPES, pH 7.4 with 120 mM NaCl; 5 mM KCl; 1.8 mM CaCl2; 0.62 mM MgSO4; 6 mM D-glucose. LPA1 RH7777, LPA3 RH7777 and LPA5 B103 cells were serum-deprived for 4 hours, while LPA2 MEF cells were serum-deprived for 1 hour, and LPA4 CHO cells were not serum-deprived. Fura 2-AM was then loaded for 30 minutes at a concentration of 4.5 μg/ml in Krebs buffer with 0.45% (v/v) Pluronic F-127 (and additionally 0.1% BSA and 2.5 mM Probenicid for LPA4 CHO cells), after which cells were switched to fresh Krebs buffer. […] Fluorescence corresponding to calcium mobilization was immediately monitored upon addition every 3.42 seconds over a span of 70 seconds total at excitation/emission wavelengths of 340/510 and 380/510 nm. […] GraphPad Prism version 5.0a was then used to plot the data and fit non-linear regression curves in a variable slope model in order to determine the pharmacodynamics (EC50 or IC50) of the compounds in Ca^2+ mobilization.

| pNP-TMP Inhibition [1] | fold IC50 improvement relative to screening hit 918013 [2] | IC50 [2] | IC50 [3] [nM] | IC50 [4] [µM] | Emax (% LPA), LPA1 RH7777 [4] [% LPA] | Mechanism ([2]; mechanism of inhibition, FS-3 0 to 10 μM, inhibitor 0, 0.5×IC50 or 2×IC50) | SMILES |
| --- | --- | --- | --- | --- | --- | --- | --- |
| None | four-fold | 31.5 ± 2.11 nM | 1478 ± 12.3 | – | – | – | O=C(Nc1ccc(F)c(F)c1)c1cc(S(=O)(=O)N2CCOCC2)c(Cl)cc1Cl [Compound 3a, 2,4-dichloro-N-(3,4-difluorophenyl)-5-(morpholinosulfonyl)benzamide] |
| sparing effects and None | – | – | 528 ± 13.9 | 9.1 | 37.99 | Competitive | O=C(Nc1cc(F)c(F)c(F)c1)c1cc(S(=O)(=O)N2CCOCC2)c(Cl)cc1Cl [Compound 3b, 2,4-dichloro-5-(morpholinosulfonyl)-N-(3,4,5-trifluorophenyl)benzamide] |
| None | – | 83 nM and 83.7 nM | – | 3.96 | 38.58 | – | O=C(Nc1cc(F)c(Cl)c(F)c1)c1cc(S(=O)(=O)N2CCOCC2)c(Cl)cc1Cl [Compound 3f, 2,4-dichloro-N-(4-chloro-3,5-difluorophenyl)-5-(morpholinosulfonyl)benzamide] |
| None | – | 40.09 ± 0.33 nM | – | 11.9 | 36.08 | – | O=C(Nc1cc(Cl)c(F)c(Cl)c1)c1cc(S(=O)(=O)N2CCOCC2)c(Cl)cc1Cl [Compound 3g, 2,4-dichloro-N-(3,5-dichloro-4-fluorophenyl)-5-(morpholinosulfonyl)benzamide] |
